Data from US10100050B2 (CHIESI FARMACEUTICI S.P.A., priority 2015, dated 2018).
Counter-ions that a name gives are not always drawn.

Assays:
p38alpha = target: T1, p38alpha (Homo sapiens, UniProt Q16539); test: P38alpha enzyme inhibition assay (Alphascreen kinase activity assay); format: biochemical; settings: IC50 classes; 2 hours preincubation at 25° C., 250 μM ATP; read-out: p38α inhibition
T1 construct: purchased Invitrogen PV3304
Procedure: P38alpha Enzyme Inhibition Assay
The inhibitory activity of compounds was determined using an Alphascreen® (Perkin Elmer) based kinase activity assay. Kinase reactions consisted of 25 mM HEPES pH 7.5, 10 mM MgCl2, 100 μM Na3VO4, 2 mM DTT, 0.05 mg/ml Tween […] (Invitrogen, PV3304), 1% DMSO and 0.3 μg/ml ATF-2 fusion protein (New England Biolabs, 9224). Compounds were incubated under these conditions for 2 hours, at 25° C., prior to the initiation of the kinase activity by the addition of the 250 μM ATP. Reaction volumes were 20 uL. After 1 hr at 25° C. reactions were stopped by the adding 10 uL of 25 mM HEPES pH 7.5 containing 62.5 mM EDTA, 0.05% Triton X-100, 10% BSA and 0.83 ng/uL anti-phospho-ATF2 antibody (Abcam, ab28812). Detection was performed by measuring luminescence following the addition of Alphascreen Donor beads (Perkin Elmer 6765300) and Protein A Alphascreen Acceptor beads (Perkin Elmer 6760137), both at a final concentration of 20 ug/ml. IC50 values were determined from concentration-response curves.

[1] = tested on: Peripheral Blood Mononuclear Cells (PBMCs); test: LPS-stimulated PBMC TNFα release assay; format: cell-based; settings: IC50 classes; human PBMC, LPS 10 ng/ml, 18 h; read-out: LPS-stimulated PBMC TNFα release inhibition
Procedure: 1-10 nM ‘+’; • <1 nM ‘++’ LPS-Stimulated PBMC TNFα Release Assay
Peripheral Blood Mononuclear Cells (PBMCs) were isolated from healthy human volunteer blood using a standard density gradient centrifugation technique. Citrated blood was placed onto Histopaque™ and centrifuged. The PBMCs were removed from the density gradient interface and washed in phosphate buffered saline (PBS). The PBMCs were suspended in RPMI 1640 medium (without serum), dispensed into a 96-well plate and incubated at 37° C. for 3 h in a humidified incubator. After incubation, the medium was replaced (with medium containing 1% foetal bovine serum) and the plate incubated at 37° C., for 1 h, in the presence of test compound or the appropriate vehicle. LPS (10 ng/ml), or an appropriate vehicle control, was then added to the cells and the plate returned to the incubator for 18 h. Cell-free supernatants were removed and assayed for TNFα levels using MSD plates on the Sector Imager 6000 (MesoScale).
A dose response curve to each test compound was performed and the effect of compound in each experiment was expressed as a percentage inhibition of the control TNFα release. Dose response curves were plotted and compound potency (IC50) was determined. Compounds were tested in at least three separate experiments.

BEAS-2B cells = test: TNFα-stimulated BEAS-2B IL-8 release assay; format: cell-based; settings: Homo sapiens, IC50 classes, TNF-α 10 ng/ml, 18 h, read-out: TNFα-stimulated BEAS-2B IL-8 release inhibition
Procedure: TNFα-Stimulated BEAS-2B IL-8 Release Assay
Human bronchial epithelial cell line BEAS-2B was purchased from Sigma (St. Louis, Mo.). BEAS-2B cells were cultured in Bronchial Epithelial cell Growth Medium (BEGM), prepared by supplementing Bronchial Epithelial Basal Medium with SingleQuotes™ (Lonza, Switzerland), which contains retinoic acid, epidermal growth factor, epinephrine, transferrin, triiodothyronin, insulin, hydrocortisone, antimicrobial agents, and bovine pituitary extract. In addition, BEGM medium was supplemented with 2 mM glutamine, 100 U penicillin and 100 μg/ml streptomycin (Life Technologies), in an atmosphere of 95% air and 5% CO2 at 37° C.
BEAS-2B were seeded in 48-well plates at the density of 3×10^4 cells per well, grown to approximately 80-90% confluence. Cells were pre-incubated with p38 inhibitors for 1 hour and then stimulated with TNF-α (10 ng/ml) for 18 h at 37° C. with 5% CO2. Subsequently, supernatants were collected and used for measuring IL-8 levels using a paired antibody quantitative ELISA kit purchased from Life Technologies (detection limit: […]). All the treatments were performed at least in quadruplicate.
A concentration-response curve to each test compound was performed and the effect of compound in each experiment was expressed as a percentage inhibition of the control IL-8 release. Compound potency (IC50) was calculated by the analysis of the sigmoidal dose-response curve (variable slope) elaborated by Graph Pad PRISM4 program.

T1 sequence (Q16539 whole entry): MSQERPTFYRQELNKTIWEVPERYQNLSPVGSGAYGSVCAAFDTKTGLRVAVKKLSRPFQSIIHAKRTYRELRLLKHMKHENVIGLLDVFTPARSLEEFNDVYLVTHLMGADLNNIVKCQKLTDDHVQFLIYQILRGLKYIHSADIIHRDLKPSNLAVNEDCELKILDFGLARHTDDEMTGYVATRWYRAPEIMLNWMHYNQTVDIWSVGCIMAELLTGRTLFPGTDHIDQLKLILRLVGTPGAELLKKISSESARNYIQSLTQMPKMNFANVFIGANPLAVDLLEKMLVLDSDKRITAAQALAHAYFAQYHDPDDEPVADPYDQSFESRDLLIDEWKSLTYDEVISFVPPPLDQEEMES

SMILES	IC50 (p38alpha)	IC50 [1]	IC50 (BEAS-2B cells)
COc1c(CO)cc(C(C)(C)C)cc1NC(=O)N[C@H]1CC[C@@H](Oc2ccc3nnc([C@]4(C)CCCN4C)n3c2)c2ccccc21 [Example 3, 1-(5-tert-Butyl-3-hydroxymethyl-2-methoxy-phenyl)-3-{(1S,4R)-4-[-3-((S)-1,2-dimethyl-pyrrolidin-2-yl)-[1,2,4]triazolo[4,3-a]pyridin-6-yloxy]-1,2,3,4-tetrahydro-naphthalen-1-yl}-urea hydrochloride salt]	< 1 nM	< 1 nM	< 0.3 nM
COc1c(CO)cc(C(C)(C)C)cc1NC(=O)N[C@H]1CC[C@@H](Oc2ccc3nnc(C(C)(C)N(C)C)n3c2)c2ccccc21 [Example 4, 1-(5-tert-Butyl-3-hydroxymethyl-2-methoxy-phenyl)-3-{(1S,4R)-4-[3-(1-dimethylamino-1-methyl-ethyl)-[1,2,4]triazolo[4,3-a]pyridin-6-yloxy]-1,2,3,4-tetrahydro-naphthalen-1-yl}-urea hydrochloride salt]	< 1 nM	< 1 nM	< 0.3 nM
COc1c(CO)cc(C(C)(C)C)cc1NC(=O)N[C@H]1CC[C@@H](Oc2ccc3nnc([C@@H]4CCCCN4C)n3c2)c2ccccc21 [Example 5, 1-(5-tert-Butyl-3-hydroxymethyl-2-methoxy-phenyl)-3-{(1S,4R)-4-[3-((S)-1-methyl-piperidin-2-yl)-[1,2,4]triazolo[4,3-a]pyridin-6-yloxy]-1,2,3,4-tetrahydro-naphthalen-1-yl}-urea]	1 to 10 nM	< 1 nM	< 0.3 nM
COc1c(CO)cc(C(C)(C)C)cc1NC(=O)N[C@H]1CC[C@@H](Oc2ccc3nnc([C@@H]4CCCN4C(C)C)n3c2)c2ccccc21 [Example 6, 1-(5-tert-Butyl-3-hydroxymethyl-2-methoxy-phenyl)-3-{(1S,4R)-4-[3-((S)-1-isopropyl-pyrrolidin-2-yl)-[1,2,4]triazolo[4,3-a]pyridin-6-yloxy]-1,2,3,4-tetrahydro-naphthalen-1-yl}-urea]	1 to 10 nM	< 1 nM	< 0.3 nM
CNC(=O)c1cc(C(C)(C)C)cc(NC(=O)N[C@H]2CC[C@@H](Oc3ccc4nnc([C@@H]5CCCN5C)n4c3)c3ccccc32)c1OC [Example 7, 5-tert-Butyl-2-methoxy-N-methyl-3-(3-{(1S,4R)-4-[3-((S)-1-methyl-pyrrolidin-2-yl)-[1,2,4]triazolo[4,3-a]pyridin-6-yloxy]-1,2,3,4-tetrahydro-naphthalen-1-yl}-ureido)-benzamide hydrochloride salt]	< 1 nM	< 1 nM	0.3 to 1 nM
COc1c(NC(C)=O)cc(C(C)(C)C)cc1NC(=O)N[C@H]1CC[C@@H](Oc2ccc3nnc([C@]4(C)CCCN4C)n3c2)c2ccccc21 [Example 8, N-[5-tert-Butyl-3-(3-{(1S,4R)-4-[3-((S)-1,2-dimethyl-pyrrolidin-2-yl)-[1,2,4]triazolo[4,3-a]pyridin-6-yloxy]-1,2,3,4-tetrahydro-naphthalen-1-yl}-ureido)-2-methoxy-phenyl]-acetamide]	1 to 10 nM	< 1 nM	< 0.3 nM
COc1c(NC(C)=O)cc(C(C)(C)C)cc1NC(=O)N[C@H]1CC[C@@H](Oc2ccc3nnc([C@@H]4CCCN4C(C)C)n3c2)c2ccccc21 [Example 9, N-[5-tert-Butyl-3-(3-{(1S,4R)-4-[3-((S)-1-isopropyl-pyrrolidin-2-yl)-[1,2,4]triazolo[4,3-a]pyridin-6-yloxy]-1,2,3,4-tetrahydro-naphthalen-1-yl}-ureido)-2-methoxy-phenyl]-acetamide]	1 to 10 nM	< 1 nM	< 0.3 nM
COc1c(NC(C)=O)cc(C(C)(C)C)cc1NC(=O)N[C@H]1CC[C@@H](Oc2ccc3nnc(C(C)(C)N(C)C)n3c2)c2ccccc21 [Example 10, N-[5-tert-Butyl-3-(3-{(1S,4R)-4-[3-(1-dimethylamino-1-methyl-ethyl)-[1,2,4]triazolo[4,3-a]pyridin-6-yloxy]-1,2,3,4-tetrahydro-naphthalen-1-yl}-ureido)-2-methoxy-phenyl]-acetamide]	1 to 10 nM	< 1 nM	< 0.3 nM
